For one data set, the system named is S. aureus (ATCC 29213). Type of data set: cell-based. To be noted: ATCC 29213, 20 h. The protocol: The broth microdilution method was used to determine minimal inhibitory concentration (MIC) and minimal bactericidal concentration (MBC), in accordance with the EUCAST standards for the broth microdilution method. […] In brief, two-fold serial dilutions of the lipopeptides were performed in a 96-well plate in PBS, with a final volume of 100 µl per well, after which 100 µl of LB-broth media containing approximately 5 × 10^5 CFU/ml of bacteria was added to each well. The plate was then incubated for 20 h in 37 °C on a shaker (400 rpm). The effect of lipopeptide-antibiotic combinations was investigated by performing checkerboard assays. The assays were performed in accordance with the MIC and MBC tests conducted above, but with horizontal and longitudinal two-fold serial dilutions of the tested compounds. […] The fractional inhibitory concentration (FIC) and fractional bactericidal concentration (FBC) were calculated by the equation (MIC or MBC of peptide in combination/MIC or MBC of peptide alone) + (MIC or MBC of antibiotic in combination/MIC or MBC of antibiotic alone). […] All experiments were repeated at least three times.

Data set [1] is described as follows: Carboxyfluorescein release assay, mammalian liposome model. Type of data set: biochemical. To be noted: 65:5:30 POPC:POPS:Chol. liposomes, 25 µM lipid, 10 mM PBS pH 7.4, 10^–5–10^2 µM peptide, 60 min, fluorescence, Hill fit, n = 3; read-out: EC50 Mammalial (concentration that triggers 50% CF release). Put shortly: (§1)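 CF-loaded extruded 0.1 µm unilamellar liposomes: bacterial POPC:POPG 75:25, mammalian POPC:POPS:Chol 65:5:30. Liposomes at 25 µM lipid in PBS pH 7.4 incubated with peptide (10^–5–10^2 µM; n = 3), fluorescence read every 2.5 min for 1 h. Release normalized to 1% Triton X-100; EC50 from Hill-1 fit.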

The subject of data set [2] is E. coli (K-12 MG1655). Type of data set: cell-based. The conditions noted are these: K-12, 20 h.
Method: The broth microdilution method was used to determine minimal inhibitory concentration (MIC) and minimal bactericidal concentration (MBC), in accordance with the EUCAST standards for the broth microdilution method. Two-fold serial dilutions of the lipopeptides were used, and the final concentrations ranged from 0.19 to 100 µM. In brief, two-fold serial dilutions of the lipopeptides were performed in a 96-well plate in PBS, with a final volume of 100 µl per well, after which 100 µl of LB-broth media containing approximately 5 × 10^5 CFU/ml of bacteria was added to each well. The plate was then incubated for 20 h in 37 °C on a shaker (400 rpm). The effect of lipopeptide-antibiotic combinations was investigated by performing checkerboard assays. The assays were performed in accordance with the MIC and MBC tests conducted above, but with horizontal and longitudinal two-fold serial dilutions of the tested compounds. […] The fractional inhibitory concentration (FIC) and fractional bactericidal concentration (FBC) were calculated by the equation (MIC or MBC of peptide in combination/MIC or MBC of peptide alone) + (MIC or MBC of antibiotic in combination/MIC or MBC of antibiotic alone). Synergy was defined as FIC/FBC ≤ 0.5, additive when 0.5 < FIC/FBC ≤ 1, indifferent when 1 < FIC/FBC < 2 and antagonistic when FIC/FBC ≥ 2. All experiments were repeated at least three times.
Data set [3] is described as follows: Carboxyfluorescein release assay, bacterial liposome model. The format is biochemical. The conditions noted are these: 75:25 POPC:POPG liposomes, 25 µM lipid, 10 mM PBS pH 7.4, 10^–5–10^2 µM peptide, 60 min, fluorescence, Hill fit, n = 3; read-out: EC50 Bacterial (concentration that triggers 50% CF release). In outline: as §1
In a further data set the test system is human erythrocytes. Description: Hemolytic activity. The conditions noted are these: 15% suspension in PBS, 1 h, 37 °C, absorbance 540 nm, highest tested concentration 100 µM. Type of data set: cell-based. The protocol: The hemolytic activity of the lipopeptides was investigated by collecting blood from healthy volunteers in heparinized vacutainers. Briefly, the blood was centrifuged at 600 × g for 5 min and the erythrocyte pellet was washed three times in PBS. The cells were then suspended in PBS and added to 96-well plates (15% erythrocyte suspension/well), containing the lipopeptides with two-fold serial dilution. The plates were incubated for 1 h at 37 °C followed by centrifugation for 5 min at 900×g and absorbance measurement of the supernatants at 540 nm. Hemolytic activity (%) was calculated by subtracting the negative control from all values and normalization against the positive control (0.5% Triton X-100), that was set to 100%. All experiments, each in duplicate, were repeated three times.

Data set [4] concerns S. aureus (ATCC 29213, MSSA). The conditions noted are these: ATCC 29213, 20 h.
Data set [5] has as its system E. coli (K-12 MG1655).
For a further data set, the system named is A. baumannii. The conditions noted are these: 20 h.
A further data set concerns E. cloacae. The conditions noted are these: 20 h.
Another data set relates to P. aeruginosa. To be noted: 20 h.
A further data set relates to E. faecium. The conditions noted are these: 20 h.
The subject of a further data set is K. pneumoniae. To be noted: 20 h.
The nature of data set [6]: Dynamic light scattering, critical aggregation concentration. The format is physicochemical. To be noted: DLS scattering intensity at 90°, 10 mM PBS pH 7.4, serial dilution 100 µM to 0.01 nM, 22 °C, average of 10 runs of 30 s; estimated. Here is the method: Lipopeptide aggregation was evaluated on a ALV/CGS-8F Platform (ALV-GmbH, Langen, Germany) equipped with a […] He–Ne laser. Scattered light was collected at 90°. PBS (10 mM, pH 7.4) was chosen as buffer, and filtered with a 0.22 µm filter prior to use. The samples were prepared in a cylindrical glass cuvette immersed in refractive-index matching toluene. The peptides were serially diluted between 100 µM and 0.01 nM, sonicated for 1 min and incubated for 5 min at 22 °C and vortexed prior to measuring. The temperature was controlled throughout the experiment with the use of a circulating water bath. Data were analysed with ALV-Correlator (Version 3.0, ALV-GmbH, Langen, Germany) software, and the scattering intensity was obtained through an average of 10 consecutive 30 s runs.

[7] abbreviates: Table 3, K-12 MG1655, broth microdilution, 50:50 PBS/LB-broth, 200 µL, 20 h, 37 °C.

Where two headings read alike, the source gives them in different places. Non-standard residues stand in square brackets, D forms with d. Residues, ends and D or L forms follow the SMILES beside them. No end group written: not given here. *: point of attachment. Heptanoyl = CCCCCCC(=O)*; Pentanoyl = CCCCC(=O)*

For the molecule `CCCCC(=O)N[C@H](CC(C)C)C(=O)NCC(=O)N[C@H](CC(C)C)C(=O)N[C@H](CCCCN)C(=O)N[C@H](CC(C)C)C(=O)N[C@H](CC(C)C)C(=O)N[C@H](Cc1c[nH]c2ccccc12)C(=O)N[C@H](CO)C(=O)N[C@H](C)C(=O)N[C@H](Cc1ccc(O)cc1)C(=O)N[C@H](CCCCN)C(=O)N[C@H](Cc1c[nH]cn1)C(=O)N[C@H](CCCNC(=N)N)C(=O)N[C@H](CCCCN)C(=O)N[C@@H](C(=O)N[C@H](CC(C)C)C(N)=O)[C@H](C)O` [D-6-C5-Leu] (Pentanoyl-[dL]G[dL][dK][dL][dL][dW][dS][dA][dY][dK][dH][dR][dK][dT][dL]-NH2), in the data set on S. aureus (ATCC 29213), the “S. aureus MBC, lipopeptide alone” value was 3.1 µM and the “S. aureus MIC, lipopeptide alone” value came to 3.1 µM. Further, the EC50 in [1] was determined as 4080 nM. Further, in the data set with E. coli (K-12 MG1655) [2], the “E. coli MBC, lipopeptide alone” value was determined as 3.1 µM and the “E. coli MIC, lipopeptide alone” value is 3.1 µM. Moreover, the EC50 in data set [3] is 130 nM. In the data set with human erythrocytes, the “HC, hemolytic concentration at 5% hemolytic activity” value (from here on “HC … at 5% hemolytic activity”) is recorded as > 100 µM. Also, in [4], the “S. aureus MBC” value came out at 3.1 µM and the “S. aureus MIC” value was determined as 3.1 µM. Moreover, in the data set with E. coli (K-12 MG1655) [5] (setting [7]), the “E. coli MBC” value is 3.1 µM and the “E. coli MIC” value stood at 3.1 µM. Moreover, in the data set with A. baumannii, the MBC amounted to 3.1 µM and the MIC came to 3.1 µM. In addition, in the data set on E. cloacae, the MBC worked out at 50 µM and the MIC is listed as 25 µM. Besides, in the data set with P. aeruginosa, the MBC is 25 µM and the MIC was 12.5 µM. Besides, in the data set on E. faecium, the MBC is 3.1 µM and the MIC is recorded as 3.1 µM. Moreover, in the data set on K. pneumoniae, the MBC worked out at 25 µM and the MIC amounted to 12.5 µM.

`CCCCC(=O)N[C@H](CC(C)C)C(=O)NCC(=O)N[C@@H](C(=O)N[C@H](CCCCN)C(=O)N[C@@H](C(=O)N[C@H](CC(C)C)C(=O)N[C@H](Cc1c[nH]c2ccccc12)C(=O)N[C@H](CO)C(=O)N[C@H](C)C(=O)N[C@H](Cc1ccc(O)cc1)C(=O)N[C@H](CCCCN)C(=O)N[C@H](Cc1c[nH]cn1)C(=O)N[C@H](CCCNC(=N)N)C(=O)N[C@H](CCCCN)C(=O)N[C@@H](C(=O)N[C@@H](C(N)=O)[C@H](C)CC)[C@H](C)O)[C@H](C)CC)[C@H](C)CC` [D-6-C5] (Pentanoyl-[dL]G[dI][dK][dI][dL][dW][dS][dA][dY][dK][dH][dR][dK][dT][dI]-NH2): in the data set with S. aureus (ATCC 29213), the “S. aureus MIC, lipopeptide alone” value was 3.1 µM. Moreover, the EC50 came to 13100 nM in data set [1] and 120 nM in data set [3]. Also, the “E. coli MIC, lipopeptide alone” value with E. coli (K-12 MG1655) [2] is 3.1 µM. For the same molecule, in the data set with human erythrocytes, the “HC … at 5% hemolytic activity” value is listed as > 100 µM. Besides, the “S. aureus MBC” value in [4] stood at 6.2 µM. In addition, the “S. aureus MIC” value in data set [4] was found to be 3.1 µM. The “E. coli MBC” value in the data set with E. coli (K-12 MG1655) [5] (setting [7]) came out at 3.1 µM. In the data set with E. coli (K-12 MG1655) [5] (setting [7]), the “E. coli MIC” value is given as 3.1 µM. For the same molecule, the MBC in the data set on A. baumannii came to 3.1 µM; in the data set on E. cloacae, 50 µM; with P. aeruginosa it was 50 µM; in the data set on E. faecium it was 3.1 µM; in the data set on K. pneumoniae it was 50 µM. Further, the MIC turned out to be 3.1 µM with A. baumannii; 25 µM with E. cloacae; 25 µM in the data set on P. aeruginosa; 3.1 µM in the data set with E. faecium; 25 µM with K. pneumoniae.

`CCCCC(=O)N[C@@H](CC(C)C)C(=O)NCC(=O)N[C@@H](CC(C)C)C(=O)N[C@@H](CCCCN)C(=O)N[C@@H](CC(C)C)C(=O)N[C@@H](CC(C)C)C(=O)N[C@@H](Cc1c[nH]c2ccccc12)C(=O)N[C@@H](CO)C(=O)N[C@@H](C)C(=O)N[C@@H](Cc1ccc(O)cc1)C(=O)N[C@@H](CCCCN)C(=O)N[C@@H](Cc1c[nH]cn1)C(=O)N[C@@H](CCCNC(=N)N)C(=O)N[C@@H](CCCCN)C(=O)N[C@H](C(=O)N[C@@H](CC(C)C)C(N)=O)[C@@H](C)O` [L-6-C5-Leu] (Pentanoyl-LGLKLLWSAYKHRKTL-NH2): the EC50 in data set [1] turned out to be 3990 nM; in data set [3] it was 110 nM. In addition, in the data set on human erythrocytes, the “HC … at 5% hemolytic activity” value is reported as > 100 µM. Besides, the “S. aureus MBC” value in data set [4] is recorded as 3.1 µM. Besides, the “S. aureus MIC” value in [4] turned out to be 3.1 µM. Moreover, the “E. coli MBC” value in the data set on E. coli (K-12 MG1655) [5] (setting [7]) is 6.2 µM. Also, the “E. coli MIC” value in the data set on E. coli (K-12 MG1655) [5] (setting [7]) is reported as 6.2 µM. Further, the MBC is 3.1 µM in the data set on A. baumannii; > 100 µM in the data set with E. cloacae; 50 µM with P. aeruginosa; 6.3 µM in the data set with E. faecium; 50 µM in the data set on K. pneumoniae. In addition, the MIC with A. baumannii is given as 3.1 µM; with E. cloacae, > 100 µM; in the data set with P. aeruginosa, 25 µM; in the data set with E. faecium, 3.1 µM; in the data set on K. pneumoniae it was 25 µM.

With `CCCCCCC(=O)N[C@@H](CC(C)C)C(=O)NCC(=O)N[C@H](C(=O)N[C@@H](CCCCN)C(=O)N[C@H](C(=O)N[C@@H](CC(C)C)C(=O)N[C@@H](Cc1c[nH]c2ccccc12)C(=O)N[C@@H](CO)C(=O)N[C@@H](C)C(=O)N[C@@H](Cc1ccc(O)cc1)C(=O)N[C@@H](CCCCN)C(=O)N[C@@H](Cc1c[nH]cn1)C(=O)N[C@@H](CCCNC(=N)N)C(=O)N[C@@H](CCCCN)C(=O)N[C@H](C(=O)N[C@H](C(N)=O)[C@@H](C)CC)[C@@H](C)O)[C@@H](C)CC)[C@@H](C)CC` [L-6-C7] (Heptanoyl-LGIKILWSAYKHRKTI-NH2), the EC50 in [1] stood at 1950 nM. Further, the “critical aggregation concentration (CAC)” value in [6] was 0.8 µM. Further, the EC50 in [3] was determined as 220 nM. For the same molecule, in the data set with human erythrocytes, the “HC … at 5% hemolytic activity” value turned out to be 80 µM. Besides, in [4], the “S. aureus MBC” value turned out to be 3.1 µM and the “S. aureus MIC” value was 3.1 µM. In the data set with E. coli (K-12 MG1655) [5] (setting [7]), the “E. coli MBC” value was 6.2 µM and the “E. coli MIC” value worked out at 6.2 µM.

LGIKILWSAYKHRKTI-NH2 [L-6]: the EC50 in data set [1] was > 100000 nM. The “critical aggregation concentration (CAC)” value in data set [6] is 10 µM. For the same molecule, the EC50 in [3] amounted to 150 nM. Also, in data set [4], the “S. aureus MBC” value is listed as > 100 µM and the “S. aureus MIC” value is recorded as > 100 µM. For the same molecule, in the data set on E. coli (K-12 MG1655) [5] (K-12, 20 h), the “E. coli MBC” value is on record as > 100 µM and the “E. coli MIC” value is > 100 µM.

As a reminder, the MBC is the smallest concentration meeting the test's criterion for killing. The MIC is the least concentration at which growth counts as inhibited.

These data come from publication PMC10011573, “Development of novel broad-spectrum antimicrobial lipopeptides derived from plantaricin NC8 β” (Scientific Reports, 2023).
